Results taken from paper PMC11861906, “Structural basis for lipid-mediated activation of G protein-coupled receptor GPR55” (Nature Communications, 2025).
Blank lines part the entries; values can stand above or below the molecule they belong to.

Tests used:
Format in all cases: cell-based
[1] = biological target: GPR55 mutant R253A (Gα13) (Homo sapiens, UniProt Q9Y2T6, R253A); assay: BRET² G protein dissociation assay, GPR55 R253A with Gα13
Description: (§1) To validate the functionality of the GPR55 cryo-EM construct, we conducted bioluminescence resonance energy transfer 2 (BRET²)-based G protein dissociation assays[46],[47] using an engineered heterotrimeric G13 protein. The N-terminal GFP fusion of the receptor was additionally modified with a G67A mutation to disrupt fluorescence properties. We employed human embryonic kidney (HEK) cells overexpressing wt or mutant GPR55 together with Gβ3, Gγ9-GFP, and Gα13 tagged with Renilla luciferase 8 (Rluc8).
(§2) G protein dissociation assays were performed according to the original protocols of the TRUPATH BRET² assay[47],[87] but with subtle modifications as previously described[61],[88],[89]. All reagents and cells were obtained from Thermo Fisher Scientific unless indicated otherwise. The coding sequences for the G protein biosensors[47] (Gα12-Rluc8, Gα13-Rluc8, wt Gβ3, and Gγ9-GFP), the wt GPR55, the construct used for cryo-EM (with GFP bearing a G67A mutation to disrupt fluorescence properties[48] for BRET² assays), GPR55 binding pocket mutants (G152^4.56F, G152^4.56W, N171^ECL2Q, N171^ECL2A, T176^5.33A, R253^6.62A), and the wt TBXA2R were codon-optimized for Homo sapiens, gene-synthesized, and sub-cloned into pcDNA^TM3.1(+) between NheI and HindIII restriction sites by GeneArt (Thermo Fisher Scientific). […] Freshly grown cells were washed with Dulbecco’s Balanced Salt Solution (DPBS, cat. #14200075) and detached using trypsin-ethylenediaminetetraacetic acid (trypsin-EDTA) (cat. #25300-062). Then, the cells were reconstituted to 500,000 cells per mL with fresh medium, and 1,000,000 cells were seeded into each well of a 6-well plate. After 3 h incubation at 37 °C and 5% CO2, adherent cells were transfected with 600 ng DNA (1:1:1:1 ratio of plasmid DNA for GPR55, wt Gβ3, Gγ9-GFP, and Gα12-Rluc8 or Gα13-Rluc8). Plasmid DNA was mixed with 1.5 µL Lipofectamine^TM 2000 (cat. #11668027) in Opti-MEM^TM medium (cat. #31985062) and incubated for 20 min. Then, the mixture was added to each well of the 6-well plate following 24 h incubation at 37 °C and 5% CO2. Transfected cells were washed with DPBS, detached using EDTA (Versene, cat. #15040066), and reconstituted into fresh medium at 500,000 cells mL^−1. From this suspension, 50,000 cells were seeded into each well of a white-bottom 96-well plate (Nunc^TM MicroWell^TM 96 wells, cat. #136101) following overnight incubation at 37 °C and 5% CO2. Then, the adherent cells were washed with assay medium [Hank’s balanced salt solution (HBSS, cat. #14065056) plus 20 mM HEPES pH 7.4 (cat. #15630056)] and finally reconstituted into 50 µL of the same medium. […] Methoxy e-Coelenterazine was used as luciferase substrate (Prolume Purple, NanoLight Technology, cat. #369), reconstituted at 1 mM in methanol and diluted to 37.5 µM with assay buffer (7.5 µM final assay concentration). The assay was started by the addition of 20 µL luciferase substrate to each well of the assay plate using a Multidrop^TM Combi reagent dispenser (Thermo Fisher Scientific), followed by 5 min incubation at room temperature. Then, 30 µL of agonist dilutions or DMSO control was added (final DMSO concentration 1.5%), followed by an additional 5 min incubation at room temperature. BRET² measurements were performed with a PHERAstar® FSX microplate reader (BMG LABTECH) using a BRET² filter (donor emission 370–450 nm, acceptor emission 500–530 nm) at the maximum fluorescence gain of 3600. BRET² ratios were calculated by dividing GFP emission signals from Rluc8 emission counts. Buffer-DMSO controls were subtracted from each data point to calculate ΔBRET² ratios.

[2] = biological target: GPR55 mutant N171Q (Gα13) (Homo sapiens, UniProt Q9Y2T6, N171Q); assay: BRET² G protein dissociation assay, GPR55 N171Q with Gα13
Sequence of GPR55 mutant N171Q (Gα13) (Q9Y2T6 whole entry N171Q): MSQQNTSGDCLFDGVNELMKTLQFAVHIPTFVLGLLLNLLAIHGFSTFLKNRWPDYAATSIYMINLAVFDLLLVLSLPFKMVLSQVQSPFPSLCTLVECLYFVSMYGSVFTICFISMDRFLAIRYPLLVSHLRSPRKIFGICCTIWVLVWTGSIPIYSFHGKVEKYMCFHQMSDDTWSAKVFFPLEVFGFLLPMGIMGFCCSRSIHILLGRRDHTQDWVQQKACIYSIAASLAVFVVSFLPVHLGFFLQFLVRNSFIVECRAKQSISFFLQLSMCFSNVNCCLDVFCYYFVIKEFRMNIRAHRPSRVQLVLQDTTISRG
Sequence of GPR55 mutant N171Q (Gα13) (Q14344 whole entry partner): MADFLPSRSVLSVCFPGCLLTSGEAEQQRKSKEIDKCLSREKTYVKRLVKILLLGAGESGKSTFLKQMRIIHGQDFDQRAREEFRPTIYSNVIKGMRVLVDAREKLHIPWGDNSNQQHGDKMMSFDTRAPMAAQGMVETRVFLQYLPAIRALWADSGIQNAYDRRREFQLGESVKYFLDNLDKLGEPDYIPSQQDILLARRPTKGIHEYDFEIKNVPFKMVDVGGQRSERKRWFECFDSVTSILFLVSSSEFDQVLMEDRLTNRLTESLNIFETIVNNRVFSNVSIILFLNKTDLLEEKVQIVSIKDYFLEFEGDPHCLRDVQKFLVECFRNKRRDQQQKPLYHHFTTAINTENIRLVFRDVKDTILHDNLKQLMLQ
Sequence of GPR55 mutant N171Q (Gα13) (P16520 whole entry partner): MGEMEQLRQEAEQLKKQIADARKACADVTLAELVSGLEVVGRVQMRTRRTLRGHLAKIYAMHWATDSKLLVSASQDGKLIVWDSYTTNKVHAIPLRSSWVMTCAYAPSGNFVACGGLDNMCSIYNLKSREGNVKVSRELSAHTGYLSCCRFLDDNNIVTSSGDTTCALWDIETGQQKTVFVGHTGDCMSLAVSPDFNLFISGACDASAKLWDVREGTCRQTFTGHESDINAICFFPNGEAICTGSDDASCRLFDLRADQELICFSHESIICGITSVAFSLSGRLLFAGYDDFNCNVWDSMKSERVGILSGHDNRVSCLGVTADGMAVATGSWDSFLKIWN
Sequence of GPR55 mutant N171Q (Gα13) (O14610 1-66 partner limits assumed): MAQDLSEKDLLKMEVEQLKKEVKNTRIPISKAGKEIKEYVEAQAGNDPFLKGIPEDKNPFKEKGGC
Description: as §1, §2

wt GPR55 (Gα13) = wt GPR55 (Gα13) (Homo sapiens, UniProt Q9Y2T6); assay: BRET² G protein dissociation assay, wt GPR55 with Gα13; settings: for ΔBRET² ratio (Mean): GPR55-wt-G13
Sequence of wt GPR55 (Gα13) (Q9Y2T6 whole entry): as the sequence (Q9Y2T6 whole entry N171Q) above, with Q171N counted along it
Sequence of wt GPR55 (Gα13) (Q14344 whole entry partner): as the sequence (Q14344 whole entry partner) above
Sequence of wt GPR55 (Gα13) (P16520 whole entry partner): as the sequence (P16520 whole entry partner) above
Sequence of wt GPR55 (Gα13) (O14610 1-66 partner limits assumed): as the sequence (O14610 1-66 partner limits assumed) above
Description: as §1, §2

Sequence of GPR55 mutant R253A (Gα13) (Q9Y2T6 whole entry R253A, the tested form may be a part): as the sequence (Q9Y2T6 whole entry N171Q) above, with Q171N, R253A counted along it
Sequence of GPR55 mutant R253A (Gα13) (Q14344 whole entry partner, the tested form may be a part): as the sequence (Q14344 whole entry partner) above
Sequence of GPR55 mutant R253A (Gα13) (P16520 whole entry partner, the tested form may be a part): as the sequence (P16520 whole entry partner) above
Sequence of GPR55 mutant R253A (Gα13) (O14610 1-66 partner limits assumed): as the sequence (O14610 1-66 partner limits assumed) above

Mean (plotted) BRET² response, GPR55-R253A-G13 ([1]; Concentration 300 pM): -0.01108 | Mean (plotted) BRET² response, GPR55-R253A-G13 ([1]; Concentration 1e-9 M): -0.01039 | Mean (plotted) BRET² response, GPR55-R253A-G13 ([1]; Concentration 3e-9 M): -0.0289 | Mean (plotted) BRET² response, GPR55-R253A-G13 ([1]; Concentration 1e-8 M): -0.05814 | Mean (plotted) BRET² response, GPR55-R253A-G13 ([1]; Concentration 3e-8 M): -0.08149 | Mean (plotted) BRET² response, GPR55-R253A-G13 ([1]; Concentration 1e-7 M): -0.0987 | Mean (plotted) BRET² response, GPR55-R253A-G13 ([1]; Concentration 3e-7 M): -0.1069 | Mean (plotted) BRET² response, GPR55-R253A-G13 ([1]; Concentration 1e-6 M): -0.1131 | Mean (plotted) BRET² response, GPR55-R253A-G13 ([1]; Concentration 3e-6 M): -0.1166 | Mean (plotted) BRET² response, GPR55-R253A-G13 ([1]; Concentration 1e-5 M): -0.1236 | Mean (plotted) BRET² response, GPR55-R253A-G13 ([1]; Concentration 3e-5 M): -0.1287 | EC50 ([1]; GPR55 R253A, Gα13): 14.5 nM | increase of potency compared to wt GPR55 ([1]; R253A mutant): slightly increased by a factor of three | Mean (plotted) BRET² response, GPR55-N171Q-G13 ([2]; Concentration 300 pM): -0.001828 | Mean (plotted) BRET² response, GPR55-N171Q-G13 ([2]; Concentration 1e-9 M): -0.002418 | Mean (plotted) BRET² response, GPR55-N171Q-G13 ([2]; Concentration 3e-9 M): -0.001477 | Mean (plotted) BRET² response, GPR55-N171Q-G13 ([2]; Concentration 1e-8 M): -0.0001092 | Mean (plotted) BRET² response, GPR55-N171Q-G13 ([2]; Concentration 3e-8 M): -0.001125 | Mean (plotted) BRET² response, GPR55-N171Q-G13 ([2]; Concentration 1e-7 M): -0.006817 | Mean (plotted) BRET² response, GPR55-N171Q-G13 ([2]; Concentration 3e-7 M): -0.01585 | Mean (plotted) BRET² response, GPR55-N171Q-G13 ([2]; Concentration 1e-6 M): -0.03451 | Mean (plotted) BRET² response, GPR55-N171Q-G13 ([2]; Concentration 3e-6 M): -0.05647 | Mean (plotted) BRET² response, GPR55-N171Q-G13 ([2]; Concentration 1e-5 M): -0.07313 | Mean (plotted) BRET² response, GPR55-N171Q-G13 ([2]; Concentration 3e-5 M): -0.08032 | EC50 ([2]; GPR55 N171Q, Gα13): 1410 nM | Emax at 30 µM ([2]; GPR55 N171Q, Gα13, 30 µM ligand, same normalization, read-out: Efficacy ± SEM (%)): 76 ± 2% | reduction of potency compared to wt GPR55 ([2]; N171Q mutant): 32 fold | ΔBRET² ratio (Mean) (wt GPR55 (Gα13); 3e-10 M): -0.004943 | ΔBRET² ratio (Mean) (wt GPR55 (Gα13); 1e-9 M): -0.002883 | ΔBRET² ratio (Mean) (wt GPR55 (Gα13); 3e-9 M): -0.008889 | ΔBRET² ratio (Mean) (wt GPR55 (Gα13); 1e-8 M): -0.01695 | ΔBRET² ratio (Mean) (wt GPR55 (Gα13); 3e-8 M): -0.02473 | ΔBRET² ratio (Mean) (wt GPR55 (Gα13); 1e-7 M): -0.03149 | ΔBRET² ratio (Mean) (wt GPR55 (Gα13); 3e-7 M): -0.03626 | ΔBRET² ratio (Mean) (wt GPR55 (Gα13); 1e-6 M): -0.04111 | ΔBRET² ratio (Mean) (wt GPR55 (Gα13); 3e-6 M): -0.04451 | ΔBRET² ratio (Mean) (wt GPR55 (Gα13); 1e-5 M): -0.04913 | ΔBRET² ratio (Mean) (wt GPR55 (Gα13); 3e-5 M): -0.04899 | Emax at 30 µM (wt GPR55 (Gα13); wt GPR55, Gα13, 30 µM ligand, 100% = wt GPR55 plus G13-biosensor at 30 µM ML184, 0% = mock plus G13-biosensor, read-out: Efficacy ± SEM (%)): 100 ± 2% | EC50 (wt GPR55 (Gα13); wt GPR55, Gα13, read-out: EC50 (Gα13 activation)): 44.7 nM
Compound: Cc1cccc(N2CCN(C(=O)c3cc(S(=O)(=O)N(C)C)ccc3N3CCCC3)CC2)c1C [ML184, 3-[[4-(2,3-dimethylphenyl)-1-piperazinyl]carbonyl]-N,N-dimethyl-4-(1-pyrrolidinyl)benzenesulfonamide]
G protein activation at GPR55-transfected cells (in words) (wt GPR55 (Gα13); wt GPR55, Gα13): induced Gα13 activation in a concentration-dependent manner

Mean (plotted) BRET² response, GPR55-R253A-G13 ([1]; Concentration 10 pM): 0.0024 | Mean (plotted) BRET² response, GPR55-R253A-G13 ([1]; Concentration 30 pM): 0.00435 | Mean (plotted) BRET² response, GPR55-R253A-G13 ([1]; Concentration 100 pM): 0.00475 | Mean (plotted) BRET² response, GPR55-R253A-G13 ([1]; Concentration 300 pM): -0.008328 | Mean (plotted) BRET² response, GPR55-R253A-G13 ([1]; Concentration 1e-9 M): 0.002391 | Mean (plotted) BRET² response, GPR55-R253A-G13 ([1]; Concentration 3e-9 M): 0.002546 | Mean (plotted) BRET² response, GPR55-R253A-G13 ([1]; Concentration 1e-8 M): 0.001532 | Mean (plotted) BRET² response, GPR55-R253A-G13 ([1]; Concentration 3e-8 M): 0.002853 | Mean (plotted) BRET² response, GPR55-R253A-G13 ([1]; Concentration 1e-7 M): 0.0008838 | Mean (plotted) BRET² response, GPR55-R253A-G13 ([1]; Concentration 3e-7 M): -0.0001645 | Mean (plotted) BRET² response, GPR55-R253A-G13 ([1]; Concentration 1e-6 M): -0.0002602 | Mean (plotted) BRET² response, GPR55-R253A-G13 ([1]; Concentration 3e-6 M): -0.001768 | Mean (plotted) BRET² response, GPR55-R253A-G13 ([1]; Concentration 1e-5 M): -0.005378 | Mean (plotted) BRET² response, GPR55-R253A-G13 ([1]; Concentration 3e-5 M): -0.00746 | Mean (plotted) BRET² response, GPR55-N171Q-G13 ([2]; Concentration 10 pM): 0.0013 | Mean (plotted) BRET² response, GPR55-N171Q-G13 ([2]; Concentration 30 pM): 0.00095 | Mean (plotted) BRET² response, GPR55-N171Q-G13 ([2]; Concentration 100 pM): 0.00685 | Mean (plotted) BRET² response, GPR55-N171Q-G13 ([2]; Concentration 300 pM): -0.0003198 | Mean (plotted) BRET² response, GPR55-N171Q-G13 ([2]; Concentration 1e-9 M): 0.003698 | Mean (plotted) BRET² response, GPR55-N171Q-G13 ([2]; Concentration 3e-9 M): 0.002984 | Mean (plotted) BRET² response, GPR55-N171Q-G13 ([2]; Concentration 1e-8 M): -0.00933 | Mean (plotted) BRET² response, GPR55-N171Q-G13 ([2]; Concentration 3e-8 M): 0.006599 | Mean (plotted) BRET² response, GPR55-N171Q-G13 ([2]; Concentration 1e-7 M): 0.005054 | Mean (plotted) BRET² response, GPR55-N171Q-G13 ([2]; Concentration 3e-7 M): 0.005811 | Mean (plotted) BRET² response, GPR55-N171Q-G13 ([2]; Concentration 1e-6 M): 0.005259 | Mean (plotted) BRET² response, GPR55-N171Q-G13 ([2]; Concentration 3e-6 M): -0.001778 | Mean (plotted) BRET² response, GPR55-N171Q-G13 ([2]; Concentration 1e-5 M): 0.001984 | Mean (plotted) BRET² response, GPR55-N171Q-G13 ([2]; Concentration 3e-5 M): -0.005542 | G protein activation at GPR55-transfected cells (in words) (wt GPR55 (Gα13); wt GPR55, Gα13): inactive
Compound: CCCCC[C@H](O)/C=C/[C@@H]1[C@@H](C/C=C\CCCC(=O)O)[C@H]2CO[C@@H]1C2 [U-46619]
